One test concerns human platelets. In words: Repression of human platelet agglutination in vitro (PRP; PAF, collagen or ADP as inducer). Type of test: cell-based. Conditions: for inhibition at 100 µM: test compound 100 μM; for inhibition at 200 µM: test compound 200 μM; for inhibition at 50 µM: test compound 50 μM; for inhibition at 20 µM: test compound 20 μM. The protocol:
Effects of repressing human platelet agglutination of the compounds of the present invention were examined in vitro. Platelet agglutination test was carried out in the following manner with the use of PAF (platelet activating factor; 1-alkyl-2-acetyl-sn-glycero-3-phosphocholine), collagen and ADP as inducers.
Blood was collected from the venae brachiales of a healthy adult in an amount of nine parts by volume to one part by volume of a 3.8% sodium citrate solution. The blood was centrifuged at 100 ×g for eight min and PRP separated as the supernatant was collected.
To 0.2 ml of the PRP as prepared above, 25 μl portions of test solutions in various concentrations were added and each mixture was incubated at 37° C. for three min. 25 μl of the abovementioned inducer solution was added thereto to induce agglutination. PAF, collagen and ADP were added as inducers to the final concentrations of 100 ng/ml, 1 μg/ml and 5 μM, respectively. Platelet agglutination was determined with an aggregometer (a product of Niko Bioscience Co., Ltd.) by the method of Mustard et al. (cf. Mustard, J.F., Hegaldt, B., Rosewell, H.C., MacMillan, R.C., J. Lab. Clin. Med., 64, 548-559 (1964)). The repressing effect of each test compound was evaluated as the repression ratio with the use of PRP containing vehicle as control.
(3) The following compounds were tested. Compounds A to D are as defined in Experimental Example 1. [drawing 18]
Each figure in Table 2 represents the repression ratio (%) of the corresponding compound.

A further test relates to Phospholipase A2. Put plainly: Phospholipase A2 inhibition (myristic acid liberated from myristyllecithin, HPLC). Type of test: biochemical. The procedure:
Prior to the determination of the activity of phospholipase A by determining myristic acid liberated from a substrate (myristyllecithin) by said enzyme by high-performance liquid chromatography, the following test compounds were added in amounts as shown in Table 1 to examine the effects thereof.
CoQ10 was employed for the purpose of comparison. [drawing 17]
Each value in Table 1 represents the evaluation of the corresponding compound assuming the value of a physiological saline solution as 100 and indicates the phospholipase A2 inhibition activity thereof.

Setting [1] is: inducer ADP 5 μM, read-out: repression ratio of platelet agglutination, ADP.
Setting [2] is: inducer PAF 100 ng/ml, read-out: repression ratio of platelet agglutination, PAF.
Setting [3] is: inducer collagen 1 μg/ml, read-out: repression ratio of platelet agglutination, Collagen.

11 molecules from patent US4992469A, “Method of obtaining an antiplatelet effect” (Eisai Co., Ltd., priority 1984, dated 1991) can be followed below.

Like-named read-outs stand apart in the source and are kept apart here.

With `COc1c(O)c(C)c(C/C=C(\C)CC/C=C(\C)CC/C=C(\C)CC/C=C(\C)CC/C=C(\C)C(=O)O)c(OC)c1OC` [Compound F], in the test with human platelets (setting [1]), the inhibition at 100 µM came to 6.7% and the inhibition at 200 µM was found to be 26.3%. In the test with human platelets (setting [2]), the inhibition at 50 µM came to 5.9%, the inhibition at 100 µM is 9.3% and the inhibition at 200 µM came out at 49%. In the test with human platelets (setting [3]), the inhibition at 20 µM turned out to be 5% and the inhibition at 100 µM is 15.8%.
For the molecule `COC1=C(OC)C(=O)C(C/C=C(\C)CC/C=C(\C)CC/C=C(\C)CC/C=C(\C)CC/C=C(\C)CC/C=C(\C)CC/C=C(\C)CC/C=C(\C)CC/C=C(\C)CCC=C(C)C)=C(C)C1=O` [CoQ10, Ubidecarenone, reference compound], the “Phospholipase A activity (physiological saline = 100)” value in the test with Phospholipase A2 (final concentration 43 μM) is 56%. In the test with human platelets (setting [1]), the inhibition at 100 µM was determined as 8.7% and the inhibition at 200 µM is 11.3%. For the same molecule, in the test on human platelets (setting [2]), the inhibition at 20 µM amounted to 8%, the inhibition at 100 µM is 16.2% and the inhibition at 200 µM stood at 19%. Also, in the test with human platelets (setting [3]), the inhibition at 20 µM was found to be 6.5% and the inhibition at 100 µM amounted to 18.7%.
Regarding `COc1c(O)c(C)c(C/C=C(\C)CC/C=C(\C)CC/C=C(\C)CC/C=C(\C)CC/C=C(\C)CC/C=C(\C)C(=O)O)c(OC)c1OC` [Compound G], in the test on human platelets (setting [1]), the inhibition at 100 µM came out at 14% and the inhibition at 200 µM was 23.1%. Also, in the test on human platelets (setting [2]), the inhibition at 50 µM turned out to be 8.1%, the inhibition at 100 µM was 12.8% and the inhibition at 200 µM came to 59.8%. Besides, the inhibition at 100 µM with human platelets (setting [3]) came to 30.2%.
Consider `COc1c(O)c(C)c(C/C=C(\C)CC/C=C(\C)CC/C=C(\C)CC/C=C(\C)C(=O)O)c(OC)c1OC` [Compound B], for which the “Phospholipase A activity (physiological saline = 100)” value in the test on Phospholipase A2 (final concentration 4 μM) turned out to be 55%. Further, in the test on human platelets (setting [1]), the inhibition at 20 µM stood at 12.9%, the inhibition at 50 µM came to 24.8%, the inhibition at 100 µM amounted to 21.5% and the inhibition at 200 µM was determined as 24.2%. Besides, in the test with human platelets (setting [2]), the inhibition at 20 µM worked out at 21.6%, the inhibition at 50 µM was 36.8%, the inhibition at 100 µM is 38.4% and the inhibition at 200 µM worked out at 51.6%. In the test on human platelets (setting [3]), the inhibition at 20 µM came to 21.4% and the inhibition at 100 µM was found to be 69.6%.
As for `COC1=C(OC)C(=O)C(C/C=C(\C)CC/C=C(\C)C(=O)O)=C(C)C1=O` [Compound H], in the test with human platelets (setting [1]), the inhibition at 100 µM worked out at 8.8% and the inhibition at 200 µM amounted to 18.2%. Further, in the test with human platelets (setting [2]), the inhibition at 20 µM came out at 8.8%, the inhibition at 50 µM stood at 28.2%, the inhibition at 100 µM came to 37.8% and the inhibition at 200 µM was found to be 47.3%. In the test on human platelets (setting [3]), the inhibition at 20 µM worked out at 38.1% and the inhibition at 100 µM is 84.3%.
As to `COc1c(O)c(C)c(C/C=C(\C)CC/C=C(\C)CC/C=C(\C)C(=O)O)c(OC)c1OC` [Compound D], in the test with Phospholipase A2 (final concentration 4 μM), the “Phospholipase A activity (physiological saline = 100)” value was 24%. In addition, in the test with human platelets (setting [1]), the inhibition at 50 µM amounted to 9%, the inhibition at 100 µM amounted to 13.5% and the inhibition at 200 µM worked out at 21.3%. In the test on human platelets (setting [2]), the inhibition at 20 µM came out at 4.5%, the inhibition at 50 µM was 23.8%, the inhibition at 100 µM was 26% and the inhibition at 200 µM was 51.5%. Besides, in the test on human platelets (setting [3]), the inhibition at 20 µM was 2.8% and the inhibition at 100 µM turned out to be 39.3%.
Consider `COc1c(O)c(C)c(C/C=C(\C)CC/C=C(\C)C(=O)O)c(OC)c1OC` [Compound E], for which, in the test on human platelets (setting [1]), the inhibition at 100 µM worked out at 10.7% and the inhibition at 200 µM came to 23%. In the test with human platelets (setting [2]), the inhibition at 20 µM was 3.03%, the inhibition at 50 µM came to 28.1%, the inhibition at 100 µM was 32.5% and the inhibition at 200 µM stood at 45.4%. Besides, in the test on human platelets (setting [3]), the inhibition at 20 µM was determined as 45.4% and the inhibition at 100 µM turned out to be 75.8%.
As for `COC1=C(OC)C(=O)C(C/C=C(\C)CC/C=C(\C)CC/C=C(\C)C(=O)O)=C(C)C1=O` [Compound C], the “Phospholipase A activity (physiological saline = 100)” value with Phospholipase A2 (final concentration 4 μM) worked out at 25%. The inhibition at 200 µM with human platelets (setting [1]) was 18.3%. Also, in the test on human platelets (setting [2]), the inhibition at 20 µM amounted to 3.5%, the inhibition at 50 µM is 3.4%, the inhibition at 100 µM came to 12.2% and the inhibition at 200 µM was found to be 47.3%. Moreover, in the test on human platelets (setting [3]), the inhibition at 20 µM turned out to be 3.2% and the inhibition at 100 µM is 17.2%.
As to `COC1=C(OC)C(=O)C(C/C=C(\C)CC/C=C(\C)CC/C=C(\C)CC/C=C(\C)CC/C=C(\C)CC/C=C(\C)C(=O)O)=C(C)C1=O` [Compound J], in the test on human platelets (setting [1]), the inhibition at 50 µM is 16.5%, the inhibition at 100 µM came out at 27.1% and the inhibition at 200 µM was 30.1%. For the same molecule, in the test with human platelets (setting [2]), the inhibition at 20 µM was determined as 6%, the inhibition at 50 µM amounted to 2.7%, the inhibition at 100 µM is 24.9% and the inhibition at 200 µM came out at 65.3%. Moreover, the inhibition at 100 µM in the test with human platelets (setting [3]) is 22%.
Turning to `COC1=C(OC)C(=O)C(C/C=C(\C)CC/C=C(\C)CC/C=C(\C)CC/C=C(\C)C(=O)O)=C(C)C1=O` [Compound A], in the test with Phospholipase A2 (final concentration 4 μM), the “Phospholipase A activity (physiological saline = 100)” value was 66%. For the same molecule, in the test on human platelets (setting [1]), the inhibition at 20 µM was determined as 12.4%, the inhibition at 50 µM turned out to be 2.1%, the inhibition at 100 µM was 22.1% and the inhibition at 200 µM was 23.1%. Moreover, in the test with human platelets (setting [2]), the inhibition at 20 µM turned out to be 27.8%, the inhibition at 50 µM came to 36%, the inhibition at 100 µM came out at 42.6% and the inhibition at 200 µM was 52.9%. Moreover, in the test with human platelets (setting [3]), the inhibition at 20 µM was 62.4% and the inhibition at 100 µM was determined as 86.6%.
Turning to `COC1=C(OC)C(=O)C(C/C=C(\C)CC/C=C(\C)CC/C=C(\C)CC/C=C(\C)CC/C=C(\C)C(=O)O)=C(C)C1=O` [Compound I], in the test with human platelets (setting [1]), the inhibition at 100 µM came to 3.9% and the inhibition at 200 µM is 22%. In the test on human platelets (setting [2]), the inhibition at 20 µM is 2.8%, the inhibition at 50 µM is 3.9%, the inhibition at 100 µM came out at 10.8% and the inhibition at 200 µM was 53.3%. In addition, the inhibition at 100 µM with human platelets (setting [3]) was determined as 24.1%.
